{
  "source": "patent US20250345309A1",
  "about": "“IMMUNE HEALTH IMPROVERS” (Amazentis SA, priority 2024, published 2025)",
  "key": {"[1]": {"assay": "Laboratory chemistry / biochemical safety analysis", "type": "in vivo, human", "protocol": "During the baseline and follow-up visits, blood was drawn by a physician or physician's assistant to assess blood biochemistry parameters and haematology. Analysis was performed using clinically validated systems at the University Hospital Frankfurt, Germany."}, "plasma cytokines": {"tested_on": "plasma cytokines", "assay": "Plasma cytokine measurements (LEGENDplex)", "type": "in vivo, human", "settings": "d28 vs baseline, 1000 mg/day oral", "protocol": "Inflammatory cytokines were measured using LEGENDplex™ HU Essential Immune Response Panel (BioLegend) according to the manufacturer's instructions. Plasma samples were diluted 1:1 in assay diluent as recommended and technical duplicates were used for both the standard curve and experimental samples. Analysis was performed with the provided software."}, "[2]": {"assay": "Clinical trial adverse event reporting", "settings": "Group A n = 25; 1000 mg/day oral, 28 days"}},
  "data": [
    {"smiles": "O=c1oc2cc(O)ccc2c2ccc(O)cc12", "note": "[Urolithin A]", "values": [
      {"measurement": "Bilirubin (mean ± SD)", "setting": "[1]; Group A d 28, 1000 mg/day oral, d 0 0.53 ± 0.31, p 0.28 n.s.", "value": "0.49 ± 0.26", "unit": "mg/dL"},
      {"measurement": "Creatinine (mean ± SD)", "setting": "[1]; Group A d 28, 1000 mg/day oral, d 0 0.82 ± 0.13, p 0.80 n.s.", "value": "0.81 ± 0.11", "unit": "mg/dL"},
      {"measurement": "Albumin (mean ± SD)", "setting": "[1]; Group A d 28, 1000 mg/day oral, d 0 4.54 ± 0.24, p 0.85 n.s.", "value": "4.55 ± 0.24", "unit": "g/dL"},
      {"measurement": "Uric acid (mean ± SD)", "setting": "[1]; Group A d 28, 1000 mg/day oral, d 0 4.86 ± 1.43, p 0.25 n.s.", "value": "5.04 ± 1.79", "unit": "mg/dL"},
      {"measurement": "Total Serum Protein (mean ± SD)", "setting": "[1]; Group A d 28, 1000 mg/day oral, d 0 7.02 ± 0.38, p 0.59 n.s.", "value": "7.06 ± 0.35", "unit": "g/dL"},
      {"measurement": "gGT (mean ± SD)", "setting": "[1]; Group A d 28, 1000 mg/day oral, d 0 24.60 ± 15.90, p 0.07 n.s.", "value": "27.13 ± 19.19", "unit": "U/I"},
      {"measurement": "AST (mean ± SD)", "setting": "[1]; Group A d 28, 1000 mg/day oral, d 0 27.26 ± 11.56, p 0.76 n.s.", "value": "28.04 ± 16.10", "unit": "U/I"},
      {"measurement": "ALT (mean ± SD)", "setting": "[1]; Group A d 28, 1000 mg/day oral, d 0 28.00 ± 24.02, p 0.38 n.s.", "value": "29.44 ± 30.27", "unit": "U/I"},
      {"measurement": "HDL cholesterol (mean ± SD)", "setting": "[1]; Group A d 28, 1000 mg/day oral, d 0 66.06 ± 13.51, p 0.06 n.s.", "value": "62.98 ± 17.58", "unit": "mg/dL"},
      {"measurement": "AP (mean ± SD)", "setting": "[1]; Group A d 28, 1000 mg/day oral, d 0 75.40 ± 20.60, p 0.15 n.s.", "value": "73.28 ± 19.22", "unit": "U/I"},
      {"measurement": "LDL cholesterol (mean ± SD)", "setting": "[1]; Group A d 28, 1000 mg/day oral, d 0 136.6 ± 33.95, p 0.89 n.s.", "value": "136.2 ± 30.56", "unit": "mg/dL"},
      {"measurement": "Triglycerides (mean ± SD)", "setting": "[1]; Group A d 28, 1000 mg/day oral, d 0 154.0 ± 98.53, p 0.53 n.s.", "value": "143.2 ± 70.34", "unit": "mg/dL"},
      {"measurement": "Total Cholesterol (mean ± SD)", "setting": "[1]; Group A d 28, 1000 mg/day oral, d 0 212.5 ± 33.60, p 0.89 n.s.", "value": "213.0 ± 33.48", "unit": "mg/dL"},
      {"measurement": "Changes in metabolic markers, kidney function parameters and liver enzymes", "setting": "[1]; after the 28-day intervention period, 1000 mg/day oral", "value": "No significant changes"},
      {"measurement": "Plasma IFN-γ level", "setting": "plasma cytokines", "value": "significantly lower"},
      {"measurement": "Plasma IL-1β level", "setting": "plasma cytokines", "value": "significantly lower"},
      {"measurement": "Plasma IL-2 level", "setting": "plasma cytokines", "value": "significantly lower"},
      {"measurement": "Plasma IL-6 level", "setting": "plasma cytokines", "value": "No difference"},
      {"measurement": "Plasma IL-8 level", "setting": "plasma cytokines", "value": "No difference"},
      {"measurement": "Plasma IL-10 level", "setting": "plasma cytokines", "value": "significantly lower"},
      {"measurement": "Plasma TNF-α level", "setting": "plasma cytokines", "value": "significantly lower"},
      {"measurement": "Plasma interferon-gamma induced protein (IP-10) level", "setting": "plasma cytokines", "value": "No difference"},
      {"measurement": "Plasma monocyte chemoattractant protein-1 (MCP-1) level", "setting": "plasma cytokines", "value": "No difference"},
      {"measurement": "Post-emergent AEs: Infections and Infestations, Covid-19", "setting": "[2]", "value": "1 (4%) n (%)"}
    ]}
  ]
}
